Experimental data reported in patent CN101659655A, “一类吡唑酰胺衍生物及其应用” (Nankai University, priority 2009, dated 2010).

Experiments:
Format in all cases: in vivo
[1] = system: diamondback moth, Plutella xylostella (L.) (小菜蛾); experiment: bioactivity evaluation against diamondback moth, leaf dip; conditions: in Brassica oleracea, foliar, 72 h, read-out: mortality grade
[2] = system: beet armyworm, Laphygma exigua Hubner (甜菜夜蛾); experiment: bioactivity evaluation against beet armyworm, leaf dip; conditions: Spodoptera exigua, in Brassica oleracea, foliar, 72 h, read-out: mortality grade
[3] = system: oriental armyworm, Mythimna separata Walker (东方粘虫); experiment: bioactivity evaluation against oriental armyworm, leaf dip; conditions: in Zea mays, foliar, 72 h, read-out: mortality grade

Measured: mortality at 500 ppm

Cc1cc(Cl)cc(C(=O)NC2CC2)c1NC(=O)c1cc(OCC(F)(F)F)nn1-c1ncccc1Cl [compound 18]
90 to 100%: all assays above
